Test results published in patent publication US6949533B2, “6,7-Oxygenated steroids and uses related thereto” (Inflazyme Pharmaceuticals Ltd., priority 1996, dated 2005).

How the values were obtained:
[1] = system: passively sensitized rat mast cells (RBL-2H3); assay: antigen-induced release of hexosaminidase from RBL-2H3 cells; assay type: cell-based; conditions: antigen-induced hexosaminidase release
Description: (§1) The anti-allergic effects of various polyhydroxylated steroids of the present invention were evaluated by measuring their effect on antigen-induced secretion of hexosaminidase from a passively sensitized rat mast cell line (RBL-2H3) and a murine mast cell line (MC/9). The ability of agents to inhibit the release of mast cell granule contents, e.g., histamine and hexosaminidase, is indicative of anti-allergy and/or anti-asthma activity.
(§2) Hexosaminidase is released from the mast cell granule along with histamine and other mediators during antigen challenge. RBL-2H3 and MC/9 cells were grown in culture and passively sensitized to dinitrophenol (DNP) using anti-human-DNP (IgE). Cells were incubated with each compound (25 μM) for 1 hour at 37° C. and then stimulated with 0.1 mg/ml DNP-HSA (antigen) for 15 min. Aliquots of the supernatant were removed and used to measure the amount of hexosaminidase released during challenge with the antigen. The amount of hexosaminidase present in the supernatant was determined calorimetrically by monitoring the enzymatic metabolism of p-nitrophenyl-N-acetyl-β-D-glucosaminide (p-NAG) over a period of 1 hour at 410 nm. The effect of each compound was determined as a percentage of the antigen-induced response (minus background release) obtained in the presence of DMSO alone, as set forth in Tables 2 and 3. These values were used to determine the degrees of inhibition of antigen-induced hexosaminidase release from the cells.

sensitized guinea pigs = assay: allergen-induced changes in lung resistance and compliance in vivo; set-up: species or system guinea pig; conditions: 5 mg/kg/day for 4 days p.o.
Description: Female Cam Hartley guinea pigs (350-400 g) are sensitized to ovalbumin by exposure of the guinea pigs to a nebulized solution of 1% ovalbumin in saline for 15 minutes. After 10-12 days, the animals are found to be acutely sensitized to the allergen (ovalbumin). Animals are treated by oral gavage, under light halothane anesthesia, with 300 μl polyethyleneglycol-200 (PEG) or 5 mg/Kg of test compound in 300 μl of PEG. Animals are treated once daily for 4 days with the final dose administered 2 hours prior to allergen challenge. Alternatively, compounds were delivered by inhalation, using a Hudson nebulizer driven by 6 psi oxygen, providing a single dose of 50 μg/Kg 20 min prior to challenge.
An animal is anaesthetized using ketamine ([…]; i.p.) and xylazine (10 mg/Kg; i.p.) and 1% halothane during the surgical procedure. A tracheostomy is performed and a water-filled esophageal cannula is inserted prior to positioning the animal in a body plethysmograph. The tracheal cannula is attached to a fixed tracheal cannula in the plethysmograph. Cardiac function is monitored using electrocardiography. The animal is paralyzed using pancuronium bromide (0.8 mg/Kg; i.m.) and ventilated with 3 ml tidal breaths using a Harvard small animal ventilator, at a frequency of 60 breaths per minute. Pulmonary resistance and dynamic lung compliance data are obtained from volume, flow and transpulmonary pressure signals using multipoint analysis.
Pulmonary function is continually monitored throughout the experiment and measurements of lung resistance and lung compliance are made at various time-points (e.g., 0, 1, 2, 3, 4, 5, 10, 20 and 30 min) following antigen challenge. Data is collected on a computer-linked physiological measurement system using DIREC Physiological recording software and analyzed using ANADAT software designed for lung mechanics measurements. This software was obtained from RHT-InfoDat Inc., Montreal, Quebec, Canada.
Once baseline resistance and compliance measurements are obtained, the animal is challenged with 6 breaths of saline. After 10 minutes, during which time no alterations in lung function should occur, the animal is challenged with 6 breaths of 2 or 3% ovalbumin in saline (as the antigen stimulus). Saline and antigen are delivered in each breath using a Hudson nebulizer.

guinea pig ileum = assay: antigen-induced contraction of ileum from sensitized guinea pigs; conditions: Cavia porcellus, read-out: Percentage Inhibition, 30 μM compound, n = 3-4
Description: The ability of compounds to inhibit allergen-induced contraction of ileum from sensitized animals is indicative of antiallergic activity. Sensitized guinea pig ileum is particularly useful in measuring the immediate allergic response.
The guinea pig ileum has been used to evaluate the ability of compounds to inhibit allergan-induced histamine and mediator release causing smooth muscle contraction. Guinea pigs were sensitized by an intraperitoneal injection of 100 mg ovalbumin and an intramuscular injection of 50 mg ovalbumin on day 0, followed by a second intramuscular injection of 50 mg ovalbumin on day 1. […] Segments of ileum were prepared and suspended, with muscle contractions being measured in the longitudinal plane, in Tyrode's buffer at 37° C. and aerated with 5% CO2 in O2. Tissues were suspended under a resting tension of 2 grams and isometric contractions were measured using force-displacement transducers coupled to a polygraph. Tissues were stimulated with 3 μM histamine 3 times to ensure reproducible contractions were obtained. Tissues were then incubated with each compound (30 μM) or 0.15% dimethylsulphoxide (DMSO) as a control, for 20 min, after which time the tissues were challenged with 100 μg/ml ovalbumin. The magnitude of the contraction induced by OA in the presence of each compound was expressed as a percentage of the contraction obtained to 3 μM histamine. The protective effects of the various compounds on OA-induced contraction of guinea pig ileum from sensitized animals are summarized in Table 4.

mouse mast cells (MC/9) = assay: antigen-induced release of hexosaminidase from MC/9 cells; assay type: cell-based
Description: as §1, §2

NF-κB = NF-κB gel shift binding assay in TPA-stimulated RBL-2H3 cells; assay type: cell-based; conditions: Rattus norvegicus, compound 1 μM, 2 hours preincubation, read-out: Percent Inhibition of Response to TPA (0.1 μM)

Q: Which results are given for `CC[C@H]1CCC2C3C(CC[C@@]21C)[C@@]1(C)CC[C@@H](O)CC1[C@@H](O)[C@@H]3O` (some centres unmarked) [Compound 339]?
A: Percentage Inhibition (mean) RBL-2H3 Cells ([1]; 25 μM compound, 25 µM): 76%; inhibition at 25 µM ([1]; Rattus norvegicus, RBL-2H3, 25 μM compound, read-out: Percentage Inhibition (mean) RBL-2H3 Cells): 79%; Lung Compliance (sensitized guinea pigs; 1 min after challenge): 0.172 ± 0.027 ml/cm H2O; Lung Resistance (sensitized guinea pigs; 1 min after challenge): 0.326 ± 0.041 cm H2O/ml/sec; Lung Compliance (sensitized guinea pigs; 2 min after challenge): 0.088 ± 0.018 ml/cm H2O; Lung Resistance (sensitized guinea pigs; 2 min after challenge): 0.522 ± 0.187 cm H2O/ml/sec; Lung Compliance (sensitized guinea pigs; 3 min after challenge): 0.060 ± 0.017 ml/cm H2O; Lung Resistance (sensitized guinea pigs; 3 min after challenge): 1.102 ± 0.047 cm H2O/ml/sec; Lung Compliance (sensitized guinea pigs; 4 min after challenge): 0.050 ± 0.013 ml/cm H2O; Lung Resistance (sensitized guinea pigs; 4 min after challenge): 0.996 ± 0.380 cm H2O/ml/sec; Lung Compliance (sensitized guinea pigs; 5 min after challenge): 0.051 ± 0.011 ml/cm H2O; Lung Resistance (sensitized guinea pigs; 5 min after challenge): 1.014 ± 0.413 cm H2O/ml/sec; Lung Compliance (sensitized guinea pigs; 10 min after challenge): 0.084 ± 0.012 ml/cm H2O; Lung Resistance (sensitized guinea pigs; 10 min after challenge): 0.440 ± 0.099 cm H2O/ml/sec; Lung Compliance (sensitized guinea pigs; 20 min after challenge): 0.123 ± 0.015 ml/cm H2O; Lung Resistance (sensitized guinea pigs; 20 min after challenge): 0.296 ± 0.031 cm H2O/ml/sec; Lung Compliance (sensitized guinea pigs; 30 min after challenge): 0.150 ± 0.012 ml/cm H2O; Lung Resistance (sensitized guinea pigs; 30 min after challenge): 0.291 ± 0.037 cm H2O/ml/sec; Lung Compliance (sensitized guinea pigs; Baseline): 0.463 ± 0.026 ml/cm H2O; Lung Resistance (sensitized guinea pigs; Baseline): 0.249 ± 0.017 cm H2O/ml/sec; Lung Compliance (sensitized guinea pigs; OA/10 s): 0.442 ± 0.025 ml/cm H2O; Lung Resistance (sensitized guinea pigs; OA/10 s): 0.239 ± 0.013 cm H2O/ml/sec; inhibition at 30 µM (guinea pig ileum): 40.6%; Percentage Inhibition (mean) MC/9 cells (mouse mast cells (MC/9); 25 μM compound, 25 µM): 55%; inhibition at 25 µM (mouse mast cells (MC/9); Mus musculus, MC9, 25 μM compound, read-out: Percentage Inhibition (mean) MC/9 cells): 67%; inhibition at 1 µM (NF-κB): 65%
